# Key:
# Caco-2 cell monolayers = test: Efflux-inhibited permeability across Caco-2 cell monolayers; assay type: in vitro ADME
# DNA gyrase B = test system: DNA gyrase B; parameters: method as in earlier work; settings: Table S4, ref Brvar, M., et al., Bioorg. Med. Chem. Lett. 2010, 20, 3, 958–962 & Boehm, H. J., J. Med. Chem. 2000, 43, 14, 2664-2674; cited from earlier work
# DAUDI cell line = test system: DAUDI cell line; parameters: method as in Cribiu, R., et al., Angew. Chem. Int. Ed. 2009, 48, 8780–8783; settings: Table S4; ref Cribiu, R., et al., Angew. Chem. Int. Ed. 2009, 48, 8780–8783; cited from earlier work
# HL-60 cell line = test system: HL-60 cell line; parameters: method as in Cribiu, R., et al., Angew. Chem. Int. Ed. 2009, 48, 8780–8783; settings: Table S4; ref Cribiu, R., et al., Angew. Chem. Int. Ed. 2009, 48, 8780–8783; cited from earlier work
# [1] = test system: Trichophyton asteroides 429; parameters: method as in Tamai, S., et al., J. Antibiot., 1982, 35, 1130-1136; settings: Table S4; ref Tamai, S., et al., J. Antibiot., 1982, 35, 1130-1136; cited from earlier work
# [2] = test system: Trichophyton mentagrophytes 833; parameters: method as in Tamai, S., et al., J. Antibiot., 1982, 35, 1130-1136; settings: Table S4; ref Tamai, S., et al., J. Antibiot., 1982, 35, 1130-1136; cited from earlier work
smiles,measurement,setting,value
"CC(=O)N1CCC[C@H]1C(=O)N[C@@H]1COC(=O)c2ccccc2CSC[C@H](C(=O)N(C)C)NC1=O [Compound 14, (4S,7R)-7-((S)-1-Acetylpyrrolidine-2-carboxamido)-N,N-dimethyl-6,10-dioxo-1,3,4,5,6,7,8,10-octahydrobenzo[j][1]oxa[8]thia[5]azacyclododecine-4-carboxamide]",permeability across Caco-2 cell monolayers (in words),Caco-2 cell monolayers,low-to-moderate
Cc1c(O)cc(O)c2c1C(=O)OCC(NC(=O)C1C(O)CCN1C(=O)C(N)CO)C(=O)NC(C(=O)NC(C)C(=O)O)CSC2 (stereo not drawn) [Cyclothialidine],DNA gyrase B ATPase activity,DNA gyrase B,Inhibition
CC=CCC=CC(C)CC(O)C1CC2OC2C=CC(O)C(O)C=CCC(C)CC(=O)O1 (stereo not drawn) [Iriomoteolide 3a],Antiproliferative activity vs DAUDI cell line,DAUDI cell line,Antiproliferative activity
same,Antiproliferative activity vs HL-60 cell line,HL-60 cell line,Antiproliferative activity
Oc1ccc2cc1Oc1ccc(cc1)CC1CNC(CN1)C2 (stereo not drawn) [Piperazinomycin],Inhibition of Trichophyton asteroides 429,[1],Inhibition
same,Inhibition of Trichophyton mentagrophytes 833,[2],Inhibition

# Reference: PMC7872424, “Mining Natural Products for Macrocycles to Drug Difficult Targets” (Journal of Medicinal Chemistry, 2020)
